From ChEMBL document CHEMBL6182895, “Synthesis, in vitro and in vivo evaluation, and computational modeling analysis of thioxothiazolidine derivatives as highly potent and selective α-amylase inhibitors” (Eur J Med Chem, 2025)
Active and inactive are the calls of the source. The calls are words filed in the database; no cut-off is given here.

Key:
[1] = Inhibition of alpha-amylase (unknown origin); design: species or system Homo sapiens
Homo sapiens [2] = organism: Homo sapiens; assay: Inhibition of alpha-amylase (unknown origin) using starch as substrate preincubated for 10 mins followed by substrate addition and measured after 10 mins relative to control; design: concentration or dose not given beside the values; conditions: time 20.0 min
Homo sapiens [3] = organism: Homo sapiens; assay: Inhibition of alpha-glucosidase (unknown origin) using p-NPG as substrate preincubated for 5 mins followed by substrate addition and measured after 30 mins relative to control; design: concentration or dose not given beside the values; conditions: time 35.0 min
[4] = Inhibition of alpha-amylase (unknown origin) using starch as substrate preincubated for 10 mins followed by substrate addition and measured after 10 mins; design: species or system Homo sapiens
[5] = Inhibition of porcine pancreatic alpha-amylase using starch as substrate preincubated for 10 mins followed by substrate addition and measured after 5 mins; design: species or system Sus scrofa
Homo sapiens [6] = organism: Homo sapiens; assay: Potency index, ratio of acarbose IC50 to test compound IC50 for inhibition of alpha-amylase (unknown origin) using starch as substrate preincubated for 10 mins followed by substrate addition and measured after 10 mins; conditions: time 20.0 min
Homo sapiens [7] = organism: Homo sapiens; assay: Mixed type of inhibition of alpha-amylase (unknown origin) assessed as change in Km and Vmax of substrate using starch as substrate and measured after 10 mins by Lineweaver-burk plot analysis
Rattus norvegicus [8] = assay: Antidiabetic activity against streptozotocin-induced diabetic Wistar rat model assessed as blood glucose level at 10 mg/kg, po and measured on day 1 (reference value: 324.7 +/-6.24 mg/dl); type: functional; conditions: time 1 day
Rattus norvegicus [9] = assay: Antidiabetic activity against streptozotocin-induced diabetic Wistar rat model assessed as blood glucose level at 10 mg/kg, po and measured on day 7 (reference value: 378.8 +/-6.48 mg/dl); type: functional; conditions: time 7 day
Rattus norvegicus [10] = assay: Antidiabetic activity against streptozotocin-induced diabetic Wistar rat model assessed as blood glucose level at 10 mg/kg, po and measured on day 14 (reference value: 388.3 +/-6.34 mg/dl); type: functional; conditions: time 14 day
Rattus norvegicus [11] = assay: Antidiabetic activity against streptozotocin-induced diabetic Wistar rat model assessed as restoration of metabolic homeostasis by measuring serum urea level at 10 mg/kg, po measured on day 1 to 14 (reference value: 124.68 +/-2.16 mg/dl); type: functional; conditions: time 1-14 day
Rattus norvegicus [12] = assay: Antidiabetic activity against streptozotocin-induced diabetic Wistar rat model assessed as restoration of metabolic homeostasis by measuring serum creatinine level at 10 mg/kg, po measured on day 1 to 14 (reference value: 116.81 +/-9.26 uM); type: functional; conditions: time 1-14 day
Rattus norvegicus [13] = assay: Antidiabetic activity against streptozotocin-induced diabetic Wistar rat model assessed as restoration of metabolic homeostasis by measuring decrease in […] level in serum at 10 mg/kg, po measured on day 1 to 14; type: functional, organism-based; conditions: time 1-14 day
Rattus norvegicus [14] = assay: Antidiabetic activity against streptozotocin-induced diabetic Wistar rat model assessed as restoration of metabolic homeostasis by measuring AST level in serum at 10 mg/kg, po measured on day 1 to 14 (reference value: 133.49 +/-2.52 IU/L); type: functional; conditions: time 1-14 day
Rattus norvegicus [15] = assay: Antidiabetic activity against streptozotocin-induced diabetic Wistar rat model assessed as restoration of metabolic homeostasis by measuring ALT level in serum at 10 mg/kg, po measured on day 1 to 14 (reference value: 35.2 +/-1.58 IU/L); type: functional; conditions: time 1-14 day
Rattus norvegicus [16] = assay: Antidiabetic activity against streptozotocin-induced diabetic Wistar rat model assessed as restoration of metabolic homeostasis by measuring ALP level in serum at 10 mg/kg, po measured on day 1 to 14 (reference value: 195.13 +/-1.08 IU/L); type: functional; conditions: time 1-14 day
Rattus norvegicus [17] = assay: Protection against diabetes-induced organ dysfunction in streptozotocin-induced diabetic Wistar rat model assessed as reduction in liver damage by measuring improved hepatic sinusoid congestion and healthier hepatocytes with reduced lipid droplets at 10 mg/kg, po and measured on day 14 by Hematoxylin-Eosin staining based analysis; type: functional, organism-based; conditions: time 14.0 day
Rattus norvegicus [18] = assay: Protection against diabetes-induced organ dysfunction in streptozotocin-induced diabetic Wistar rat model assessed as reduction in kidney damage by measuring kidney with structural improvement and reduced retraction, preserved glomeruli and less hemorrhages at 10 mg/kg, po and measured on day 14 by Hematoxylin-Eosin staining based analysis; type: functional, organism-based; conditions: time 14.0 day
Rattus norvegicus [19] = assay: Protection against diabetes-induced organ dysfunction in streptozotocin-induced diabetic Wistar rat model assessed as reduction in pancreas damage by measuring well preserved islet structure at 10 mg/kg, po and measured on day 14 by Hematoxylin-Eosin staining based analysis; type: functional, organism-based; conditions: time 14.0 day

inhibition (Homo sapiens [2]) [%] | inhibition (Homo sapiens [3]) [%] | IC50 [4] [µM] | SMILES | other results
 |  |  | Fc1ccc(NC(=S)Nc2nnc(-c3ccc4cn[nH]c4c3)s2)cc1 | IC50 [1]: 9.9 µM
22.6 | 9.25 |  | O=C(CN1C(=O)/C(=C/c2nccs2)SC1=S)Nc1ccc(Br)cc1F | 
59.2 | 6.24 | 129 | Cn1ccnc1/C=C1\SC(=S)N(CC(=O)Nc2c(F)cc(F)cc2Br)C1=O | 
 |  |  | COC(=O)[C@@H]1N[C@@]2(C(=O)Nc3ccc(Br)cc32)[C@@]2(SC(=S)NC2=O)[C@H]1c1ccccc1 | IC50 [5]: 1.49 µM
61.7 | 3.78 | 4.07 | O=C(CN1C(=O)/C(=C/c2nc3ccccc3s2)SC1=S)Nc1ccc(C(F)(F)F)cc1 | Ratio IC50 (Homo sapiens [6]): 234
27.4 | 9.47 |  | Cn1ccnc1/C=C1\SC(=S)N(CC(=O)Nc2cccnn2)C1=O | 
34.8 | 7.83 |  | O=C(CN1C(=O)/C(=C/c2nccs2)SC1=S)Nc1ccc(C(F)(F)F)cc1 | 
14.7 | 4.31 |  | O=C(CN1C(=O)/C(=C/c2csc3ccccc23)SC1=S)Nc1ccc(Br)cc1F | 
69.8 | 8.37 | 167 | O=C(CN1C(=O)/C(=C/c2nc3ccccc3s2)SC1=S)Nc1c(F)cc(Br)cc1Cl | 
42.8 | 4.85 |  | O=C(CN1C(=O)/C(=C/c2nccs2)SC1=S)Nc1c(F)cc(F)cc1Br | 
42.1 | 5.67 |  | O=C(CN1C(=O)/C(=C/c2nccs2)SC1=S)NC12CC3CC(CC(C3)C1)C2 | 
80.4 | 6.43 | 0.71 | Cn1ccnc1/C=C1\SC(=S)N(CC(=O)Nc2ccc(C(F)(F)F)cc2)C1=O | Ratio IC50 (Homo sapiens [6]): 1340; inhibition (Homo sapiens [7]): Active; Activity (Rattus norvegicus [8]): 328.3 mg/dL; Activity (Rattus norvegicus [9]): 149.7 mg/dL; Activity (Rattus norvegicus [10]): 106.2 mg/dL; Activity (Rattus norvegicus [11]): 57.31 mg/dL; Activity (Rattus norvegicus [12]): 82.14 µM; Activity (Rattus norvegicus [13]): Active; Activity (Rattus norvegicus [14]): 41.13 IU/L; Activity (Rattus norvegicus [15]): 12.04 IU/L; Activity (Rattus norvegicus [16]): 138.41 IU/L; Activity (Rattus norvegicus [17]): Active; Activity (Rattus norvegicus [18]): Active; Activity (Rattus norvegicus [19]): Active
10.1 | 10.1 |  | O=C(CN1C(=O)/C(=C/c2nccs2)SC1=S)Nc1cccnn1 | 
40.1 | 6.16 |  | O=C(CN1C(=O)/C(=C/c2nc3ccccc3s2)SC1=S)Nc1c(F)cc(F)cc1Br | 
 |  |  | Oc1ccc(-c2nnc(CSc3nc4ccccc4[nH]3)o2)c(O)c1 | IC50 [1]: 6.2 µM
73.5 | 4.59 | 14 | O=C(CN1C(=O)/C(=C/c2csc3ccccc23)SC1=S)Nc1ccc(C(F)(F)F)cc1 | Ratio IC50 (Homo sapiens [6]): 68
68.2 | 10.2 | 154 | O=C(CN1C(=O)/C(=C/c2csc3ccccc23)SC1=S)Nc1c(F)cc(Br)cc1Cl | 
47.1 | 5.14 | 45.1 | O=C(CN1C(=O)/C(=C/c2nccs2)SC1=S)Nc1c(F)cc(Br)cc1Cl | Ratio IC50 (Homo sapiens [6]): 21
30.4 | 6.43 |  | CC(C)CNC(=O)CN1C(=O)/C(=C/c2nccs2)SC1=S | 
